Test results as given in patent publication US10705093B2, “Determination of small-molecule thiols and disulfides: protein bound cys and total cysteine as biomarkers of oxidative stress” (Bloodworks, priority 2014, dated 2020).

Columns and labels:
[1] = test system: Protein-ss-Cys in plasma from a normal donor; assay: Protein-ss-Cys in plasma treated with two physiologically relevant oxidants; design: species or system human; settings: 37° C. for 30 min, with increasing oxidant concentration
Method: A. Cys containing species in normal donors' plasma (n=6); B. Plasma from a nomal donor treated with hydrogen peroxide (H2O2) and hypochlorous acid (HOCl), two oxidants commonly released from activated cells and neutrophils of patients with oxidative stress. Plasma was reaction with the indicated concentration at 37° C. for 30 min and followed by methanol extraction and analysis by LC-MS/MS-MRM as described in Example 1.

[2] = test system: Cys disulfides in plasma; assay: Cys and Cys disulfide changes in plasma from a patient with SCD before and after NAC infusion (LC-MS/MS-MRM)
[3] = test system: NAC, Cys species and GSH in plasma/whole blood/RBC; assay: Time course of NAC, Cys containing species and GSH in plasma/whole blood from a patient with SCD before and after NAC treatment
[4] = after NAC infusion for 1 hr at 150 mg/kg vs baseline

SMILES | Change of Protein-ss-Cys in plasma exposed to oxidant [1] | NAC-ss-Cys mixed disulfide in plasma ([2]; after NAC infusion for 1 hr at 150 mg/kg) | Change of Cystine in plasma [2, 4] | Change of Protein-ss-Cys in plasma [2, 4] | Change of total Cys in plasma [2, 4] | Free Cys in plasma after NAC infusion ([2]; after NAC infusion for 1 hr at 150 mg/kg, baseline 7 μM) | NAC level in plasma ([3]; 24 hr time point) | Increase of GSH level ([3]; 24 hr time point compared to before treatment) [%] | Increase of free Cys in the red blood cell (RBC) fraction ([3]; RBC fraction, after NAC infusion vs before) | Free Cys in the red blood cell (RBC) fraction after NAC ([3]; RBC fraction, after NAC infusion, before 2.3 μM) [µM] | Change of free Cys in plasma ([3]; after NAC infusion vs Pre) | Change of p-ss-Cys ([3]; after NAC infusion vs Pre) | Change of total small molecular weight thiol (st-Cys) ([3]; after NAC infusion vs Pre) | NAC half time ([3]; inferred from the 24 hr level) | Fraction of NAC oxidized ([3]; plasma, at 1 hr (right after NAC infusion)) | Free Cys in whole blood after NAC ([3]; whole blood, after NAC infusion, before 13 μM) [µM]
OO [H2O2, hydrogen peroxide] | increased |  |  |  |  |  |  |  |  |  |  |  |  |  |  | 
OCl [HOCl, hypochlorous acid] | increased |  |  |  |  |  |  |  |  |  |  |  |  |  |  | 
CC(=O)N[C@@H](CS)C(=O)O [NAC, N-Acetyl Cysteine] |  | Detection of NAC-ss-Cys | large decrease | large decrease | no significant changes | over 170 μM | almost not detectable | 13 | over 10 fold | 31 | greatly increased | decreased sharply | greatly increased | short | over 50% | 170
